Measurements: patent publication US8426414B2, “Modulators of G protein-coupled receptor 88” (Bristol-Myers Squibb Company, priority 2009, dated 2013)
Structures can show the parent of a compound that is named as a salt.

Test system: not given
Experiment: not given
Settings: not given

Row | SMILES | melting point
1 | CCCc1ccc(-c2ccc(N(CC3(N)CCOCC3)C(=O)[C@@H]3C[C@H]3c3ccccn3)cc2)cc1 (relative stereo) (as salt: hydrochloride) [Example 9, Trans-2-Pyridin-2-yl-cyclopropanecarboxylic acid (4-amino-tetrahydro-pyran-4-ylmethyl)-(4′-propyl-biphenyl-4-yl)-amide] | 180 to 183 °C

Molecular target: G protein-coupled receptor 88 (Homo sapiens, UniProt Q9GZN0)
Sequence (Q9GZN0 whole entry, species assumed): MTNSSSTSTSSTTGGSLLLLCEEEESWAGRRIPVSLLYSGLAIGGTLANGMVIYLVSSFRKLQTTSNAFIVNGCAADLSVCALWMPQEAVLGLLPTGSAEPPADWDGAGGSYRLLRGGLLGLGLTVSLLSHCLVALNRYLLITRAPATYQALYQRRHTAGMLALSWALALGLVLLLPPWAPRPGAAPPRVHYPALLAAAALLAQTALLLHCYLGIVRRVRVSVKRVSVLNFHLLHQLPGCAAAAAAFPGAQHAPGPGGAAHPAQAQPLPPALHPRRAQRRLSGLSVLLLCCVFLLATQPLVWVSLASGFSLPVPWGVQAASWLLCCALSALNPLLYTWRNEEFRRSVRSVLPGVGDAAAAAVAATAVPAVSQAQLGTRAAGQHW
Experiment: GPR88 functional assay for the Table 2 EC50 values (GTPγS assay and cAMP HTRF assay described; table does not say which)
Assay type: cell-based
Settings: class symbol X; read-out: Range (EC50)
Description: 96 well GTPγS assay plates were purchased from Perkin Elmer. Wheat Germ Agglutinin PVT SPA beads and […] were purchased from Amersham GDP, GTPγS and all buffer reagents were from Sigma. 384 well white NBS plates were purchased from corning. Pertussis toxin was purchased from Calbiochem. All cell culture reagents were purchased from Invitrogen. Forskolin was purchased from Sigma. The cAMP HTRF kit was purchased from Cisbio International.
The GTPγS assay buffer consisted of 10 mM MgCl2, 180 mM NaCl, 200 uM GDP, 0.167 mg/ml DTT, 1 mM EGTA and 20 mM HEPES pH7.4. This buffer was used for dilution of membranes, beads, and ^35S GTPγS components. To each well of the 96 well assay plate 48 ul assay buffer, 2 ul of 100× compound, 50 ul membrane solution (0.2 ug/ul), 50 ul ^35S GTPγS solution (0.8 nM) and 50 ul of SPA beads (10 mg/ml). Non-specific binding was determined by the addition of cold GTPγS to control wells. The plates were sealed with clear sealing tape and incubated at room temperature for 1 hour. GTPγS activity was detected using a Wallac Micro-Beta Trilux liquid scintillation counter. Non-specific binding was determined using 10 uM cold GTPγS.
The cAMP HTRF assay is modified from the Cisbio International kit procedure 62AM4PEJ. Assay plates were prepared by stamping 0.1 ul of 100× compound stock solutions diluted in DMSO or DMSO alone into 384 well NBS plates. The cAMP HTRF assay was performed using cells in suspension. The cAMP HTRF assay buffer consisted of Hank's Balanced Salt Solution (HBSS), 2 mM CaCl2, 5 mM MgCl2, 20 mM HEPES and 1 mM 3-isobutyl-1-methylxanthine (IBMX) (added fresh at the time of assay). For pertussis toxin treatment pertussis toxin (100 ng/ml) was added to culture medium for 16 hours prior to assay. Confluent cells were disrupted with cell dissociation buffer count cells then centrifuged at 1000×g for 5 minutes. The cell pellet was resuspended in assay buffer alone for basal cAMP measurements or with 0.75 uM forskolin (added immediately prior to addition to wells) for addition to all other wells. Using a Multidrop 384 (Lab systems) 10 ul of cell suspension was added to each well containing compound or DMSO. The plates were incubated at room temperature for 30 minutes covered. During this time the cAMP standard curve was prepared as per manufacturer's instruction. At the end of the incubation 10 ul of anti-cAMP cryptate and 10 ul cAMP-XL, diluted in manufacturer's lysis buffer, were added to each well. The plated were incubated at room temperature for 60 minutes covered then read on an Envision plate reader (Perkin Elmer) and the 665 nm/620 nm fluorescence ratio determined Fluorescence ratio values were converted to molar cAMP concentrations from the standard curve using the GraphPad Prism program.

Row | EC50 | SMILES
2 | 3 to 20 nM | CC(C)Oc1ccc(-c2ccc(N(CC3(N)CCCC3)C(=O)[C@@H]3C[C@H]3c3cccc(F)n3)cc2)cc1 (relative stereo) [Example 7, Trans-2-(6-fluoro-pyridin-2-yl)-cyclopropanecarboxylic acid (1-amino-cyclopentylmethyl)-(4′-isopropoxy-biphenyl-4-yl)-amide]
3 | 3 to 20 nM | CCCc1ccc(-c2ccc(N(CC3(N)CCOCC3)C(=O)[C@@H]3C[C@H]3c3ccccn3)cc2)cc1 (relative stereo) [Example 9, Trans-2-Pyridin-2-yl-cyclopropanecarboxylic acid (4-amino-tetrahydro-pyran-4-ylmethyl)-(4′-propyl-biphenyl-4-yl)-amide]
4 | 3 to 20 nM | CCCC#Cc1ccc(N(C[C@@H](N)[C@@H](C)CC)C(=O)C2CC2c2cccc(F)n2)cc1 (stereo in doubt) [Example 19, (1S,2S)-2-(6-Fluoro-pyridin-2-yl)-cyclopropanecarboxylic acid ((2S,3S)-2-amino-3-methyl-pentyl)-(4-pent-1-ynyl-phenyl)-amide 2TFA]
5 | 3 to 20 nM | CC[C@H](C)[C@H](N)CN(C(=O)[C@@H]1C[C@H]1c1ccccn1)c1ccc(-c2ccc(OC(C)C)cc2)cc1 [Example 2, (1R,2R)-2-Pyridin-2-yl-cyclopropanecarboxylic acid ((2S,3S)-2-amino-3-methyl-pentyl)-(4′-isopropoxy-biphenyl-4-yl)-amide]
6 | 3 to 20 nM | CCCc1ccc(-c2ccc(N(C[C@@H](N)[C@@H](C)CC)C(=O)[C@H]3C[C@@H]3c3ncccc3F)cc2)cc1 [Example 10]
7 | 3 to 20 nM | CCCc1ccc(-c2ccc(N(C[C@@H](N)[C@@H](C)CC)C(=O)C3CC3c3cnccn3)cc2)cc1 (stereo partly drawn) [Example 11, (Trans)-2-pyrazin-2-yl-cyclopropanecarboxylic acid ((2S,3S)-2-amino-3-methyl-pentyl)-(4′-propyl-biphenyl-4-yl)-amide]
8 | 3 to 20 nM | CC[C@H](C)[C@H](N)CN(C(=O)[C@@H]1C[C@H]1c1ccc(F)cn1)c1ccc2cc(C3CC3)ccc2c1 [Example 20]

The remaining lines, values behind:

Row | SMILES | EC50
9 | CCCc1ccc(-c2ccc(N(CC3(N)CCCC3)C(=O)[C@@H]3C[C@H]3c3cccc(F)n3)cc2)cc1 (relative stereo) [Example 6, Trans-2-(6-fluoro-pyridin-2-yl)-cyclopropanecarboxylic acid (1-amino-cyclopentylmethyl)-(4′-propyl-biphenyl-4-yl)-amide] | 3 to 20 nM
10 | COCc1ccc(-c2ccc(N(CC3(N)CCCC3)C(=O)[C@@H]3C[C@H]3c3cccc(F)n3)cc2)cc1 (relative stereo) [Example 8, Trans-2-(6-fluoro-pyridin-2-yl)-cyclopropanecarboxylic acid (1-amino-cyclopentylmethyl)-(4′-methoxymethyl-biphenyl-4-yl)-amide] | 3 to 20 nM
11 | CC[C@H](C)[C@H](N)CN(C(=O)[C@H]1C[C@@H]1c1ccc(F)cn1)c1ccc(-c2ccc(COC)cc2)cc1 (stereo in doubt) [Example 4, (Trans)-2-(5-fluoro-pyridin-2-yl)-cyclopropanecarboxylic acid ((2S,3S)-2-amino-3-methyl-pentyl)-(4′-methoxymethyl-biphenyl-4-yl)-amide] | 3 to 20 nM
12 | CC[C@H](C)[C@H](N)CN(C(=O)[C@@H]1C[C@H]1c1ccccn1)c1ccc(-c2ccc(COC)cc2)cc1 [Example 1, (1R,2R)-2-Pyridin-2-yl-cyclopropanecarboxylic acid ((2S,3S)-2-amino-3-methyl-pentyl)-(4′-methoxymethyl-biphenyl-4-yl)-amide] | 3 to 20 nM
13 | CC#Cc1ccc(-c2ccc(N(C[C@@H](N)[C@@H](C)CC)C(=O)[C@@H]3C[C@H]3c3ccccn3)cc2)cc1 [Example 5, (1R,2R)-2-pyridin-2-yl-cyclopropanecarboxylic acid ((2S,3S)-2-amino-3-methyl-pentyl)-(4′-prop-1-ynyl-biphenyl-4-yl)-amide] | 3 to 20 nM
14 | CC[C@H](C)[C@H](N)CN(C(=O)[C@@H]1C[C@H]1c1ccccn1)c1ccc(OCC2CCC2)cc1 [Example 13, (1R,2R)-2-Pyridin-2-yl-cyclopropanecarboxylic acid ((2S,3S)-2-amino-3-methyl-pentyl)-(4-cyclobutylmethoxy-phenyl)-amide] | 3 to 20 nM
15 | CCCc1ccc(-c2ccc(N(C[C@@H](N)[C@@H](C)CC)C(=O)[C@@H]3C[C@H]3c3cccc(F)n3)cc2)cc1 [Example 14, Trans-2-(6-fluoro-pyridin-2-yl)-cyclopropanecarboxylic acid ((2S,3S)-2-amino-3-methyl-pentyl)-(4′-propyl-biphenyl-4-yl)-amide] | 3 to 20 nM
16 | CC[C@H](C)[C@H](N)CN(C(=O)[C@@H]1C[C@H]1c1cccc(F)n1)c1ccc(-c2ccc(COC)cc2)cc1 [Example 16, Trans-2-(6-fluoro-pyridin-2-yl)-cyclopropanecarboxylic acid ((2S,3S)-2-amino-3-methyl-pentyl)-(4′-methoxymethyl-biphenyl-4-yl)-amide] | 3 to 20 nM
17 | CC[C@H](C)[C@H](N)CN(C(=O)[C@@H]1C[C@H]1c1ccc(F)cn1)c1ccc(OCC2CCC2)cc1 [Example 17, (1R,2R)-2-(5-Fluoro-pyridin-2-yl)-cyclopropanecarboxylic acid ((2S,3S)-2-amino-3-methyl-pentyl)-(4-cyclobutylmethoxy-phenyl)-amide] | 3 to 20 nM
18 | CCCc1ccc(-c2ccc(N(C[C@@H](N)[C@@H](C)OC)C(=O)[C@@H]3C[C@H]3c3cnccn3)cc2)cc1 [Example 18, Trans-2-pyrazin-2-yl-cyclopropanecarboxylic acid ((2R,3R)-2-amino-3-methoxy-butyl)-(4′-propyl-biphenyl-4-yl)-amide] | 3 to 20 nM

Same assay, conditions: value given as number; read-out: Range (EC50)

Row | SMILES | EC50
19 | CC[C@H](C)[C@H](N)CN(C(=O)[C@@H]1C[C@H]1c1ccc(F)cn1)c1ccc(OCC2CCC2)cc1 [Example 12, 2-(5-Fluoro-pyridin-2-yl)-cyclopropanecarboxylic acid ((2S,3S)-2-amino-3-methyl-pentyl)-(4-cyclobutylmethoxy-phenyl)-amide] | 20 nM
20 | CC[C@H](C)[C@H](N)CN(C(=O)[C@@H]1C[C@H]1c1cccc(F)n1)c1ccc(-c2ccc(OC(C)C)cc2)cc1 [Example 15, Trans-2-(6-fluoro-pyridin-2-yl)-cyclopropanecarboxylic acid ((2S,3S)-2-amino-3-methyl-pentyl)-(4′-isopropoxy-biphenyl-4-yl)-amide] | 8 nM
